The record followed here is PubChem BioAssay (NCI).

Each structure is given as a SMILES string.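 Compound exposure: 48 hours, 5 concentrations, 96-well plates. GI50 is the concentration that inhibits growth by half. TGI: concentration producing complete growth inhibition.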

Among the test systems are T-47D breast; BT-549 breast; CAKI-1 renal; K-562 leukemia; SF-539 CNS; UO-31 renal; ACHN renal; M14 melanoma; HOP-62 NSCLC; CCRF-CEM leukemia.
What all share (assay): NCI anticancer screen, dose series, 48 h

Turning to `Cn1c2ccccc2c2c(Nc3ccccc3)c3ccccc3nc21`, the GI50 in the assay with T-47D breast is 40.5 µM; in the assay on BT-549 breast it was 21.3 µM; in the assay on CAKI-1 renal, 16.7 µM; in the assay with K-562 leukemia, 5.11 µM; with SF-539 CNS, 12.1 µM; in the assay with UO-31 renal it was 51.8 µM. Moreover, the results for the GI50 in the assay on ACHN renal and in the assay with M14 melanoma were 23 µM and 15.9 µM, respectively. In addition, the TGI in the assay with T-47D breast was > 100 µM; in the assay with BT-549 breast, 47.8 µM; in the assay with CAKI-1 renal it was 38.7 µM; in the assay on K-562 leukemia, > 100 µM; in the assay on SF-539 CNS, 28.6 µM; in the assay with UO-31 renal, > 100 µM. The figures for the TGI in the assay with ACHN renal and in the assay with M14 melanoma were 65.5 µM and 33.3 µM, respectively.
Turning to `COc1cc(CNc2cnc3cc(N)cc(N)c3n2)cc(OC)c1`, the GI50 in the assay with BT-549 breast is 20.2 µM; with CAKI-1 renal it was 24.8 µM; with K-562 leukemia, 11.3 µM; in the assay on SF-539 CNS, 23.2 µM; with UO-31 renal, 38.2 µM; in the assay on HOP-62 NSCLC, 14.9 µM. Besides, the values for the GI50 in the assay with CCRF-CEM leukemia and in the assay with M14 melanoma were 18.5 µM and 18.1 µM, respectively. The TGI was 51.4 µM in the assay with BT-549 breast; 52.3 µM in the assay with CAKI-1 renal; 47 µM in the assay on K-562 leukemia; 46.9 µM in the assay with SF-539 CNS; > 100 µM with UO-31 renal; 44.1 µM in the assay with HOP-62 NSCLC. The TGI came to 52.3 µM with CCRF-CEM leukemia and 33.8 µM in the assay on M14 melanoma.
On to `O=C(CC1(O)C(=O)Nc2c(Cl)cc(Cl)cc21)c1ccc(Br)cc1Br` (stereo not given), for which the TGI in the assay with BT-549 breast was 22.3 µM; in the assay on CAKI-1 renal, 16.2 µM; in the assay on K-562 leukemia, 9 µM; with SF-539 CNS, 36.5 µM; with UO-31 renal, 29.5 µM; in the assay on HOP-62 NSCLC it was 36.5 µM. In addition, the TGI is 27.1 µM in the assay on ACHN renal, 3.21 µM in the assay with CCRF-CEM leukemia and 18.5 µM in the assay on M14 melanoma.
With `CCCCOC(=O)C1OC(O[C@H]2CCC3(C)C(CCC4(C)C3CC=C3C5CC(C)(C)CCC5(C(=O)O)CC[C@]34C)C2(C)C)C(OC2OC(CO)C(O)C(O)C2O)C(OC2OC(CO)C(O)C(O)C2O)C1O` (stereo not given in full), the GI50 is 48 µM in the assay with T-47D breast; 21.5 µM in the assay on BT-549 breast; 33.4 µM with CAKI-1 renal; 23.2 µM in the assay on K-562 leukemia; 49.2 µM with UO-31 renal; 19.4 µM in the assay on HOP-62 NSCLC. The GI50 with ACHN renal is 20.6 µM; in the assay on M14 melanoma, 17.8 µM. Besides, the TGI with T-47D breast was > 100 µM; in the assay on BT-549 breast it was 41.6 µM; with CAKI-1 renal, 95.4 µM; in the assay with K-562 leukemia, > 100 µM; in the assay with UO-31 renal it was > 100 µM; in the assay with HOP-62 NSCLC, 35.6 µM. Besides, the TGI in the assay on ACHN renal was determined as 48.5 µM; in the assay on M14 melanoma, 32.7 µM.
On to `Clc1ccc2c(NCCCCNc3nc(N4CCCCC4)nc4ccccc34)ccnc2c1`, for which the GI50 in the assay on T-47D breast was 2.12 µM; in the assay with BT-549 breast it was 1.78 µM; in the assay with K-562 leukemia, 1.34 µM; with SF-539 CNS it was 1.49 µM; in the assay on UO-31 renal, 1.47 µM; in the assay on HOP-62 NSCLC, 1.9 µM. Besides, the GI50 with ACHN renal is 2.1 µM; in the assay on CCRF-CEM leukemia, 1.66 µM; in the assay on M14 melanoma it was 1.62 µM. The TGI with T-47D breast stood at 4.3 µM; with BT-549 breast, 4.1 µM; with K-562 leukemia, 4.1 µM; with SF-539 CNS, 2.97 µM; with UO-31 renal, 3.05 µM; in the assay on HOP-62 NSCLC, 5.88 µM. Besides, the TGI in the assay with ACHN renal stood at 4.77 µM; in the assay with CCRF-CEM leukemia, 5.23 µM; in the assay with M14 melanoma, 3.14 µM.
With `CC1=C(C(=O)Nc2ccc(Cl)c(Cl)c2)C(c2cccc(Oc3ccccc3)c2)NC(=S)N1` (stereo not given), the GI50 in the assay on T-47D breast is 10.9 µM; in the assay with BT-549 breast, 5.94 µM; in the assay on CAKI-1 renal, 8.48 µM; in the assay with K-562 leukemia it was 12.4 µM; in the assay with SF-539 CNS, 6.6 µM; in the assay with UO-31 renal, 7.63 µM. The figures for the GI50 in the assay on HOP-62 NSCLC, in the assay on ACHN renal and in the assay on M14 melanoma were 14.2 µM, 8.07 µM and 9.21 µM, respectively. The TGI in the assay with T-47D breast is 21.4 µM; in the assay with BT-549 breast, 12.5 µM; in the assay with CAKI-1 renal it was 15.4 µM; with K-562 leukemia, > 50 µM; in the assay with SF-539 CNS it was 13 µM; in the assay with UO-31 renal it was 17.6 µM. The TGI is 24.2 µM with HOP-62 NSCLC, 15.1 µM in the assay on ACHN renal and 20.1 µM with M14 melanoma.
Consider `COc1ccc2c(C3=C(c4cn(C)c5ccccc45)C(=O)NC3=O)cn(C)c2c1`, for which the TGI in the assay with BT-549 breast is > 25 µM; with CAKI-1 renal it was > 25 µM; in the assay with K-562 leukemia it was > 25 µM; with SF-539 CNS, 0.134 µM; with UO-31 renal it was > 25 µM; in the assay with HOP-62 NSCLC, > 25 µM. Besides, the TGI with ACHN renal, in the assay with CCRF-CEM leukemia and with M14 melanoma was > 25 µM in each case. For the same compound, the GI50 was 0.0941 µM with CAKI-1 renal; 0.101 µM in the assay with K-562 leukemia; 0.0556 µM in the assay on SF-539 CNS; 3.69 µM in the assay with UO-31 renal; 0.122 µM in the assay with HOP-62 NSCLC; 0.254 µM with ACHN renal. The GI50 with CCRF-CEM leukemia was 0.0961 µM; in the assay on M14 melanoma, 0.0999 µM.
`CCCCCN(CCCCC)CCCNc1c2c(nc3ccc(Cl)cc13)CCCC2`: the GI50 with T-47D breast is 2.6 µM; in the assay with BT-549 breast, 11.2 µM; in the assay with CAKI-1 renal it was 2.18 µM; with SF-539 CNS it was 3.6 µM; in the assay with UO-31 renal, 1.93 µM; in the assay with ACHN renal it was 3.48 µM. Also, the GI50 in the assay on M14 melanoma was 1.8 µM. For the same compound, the TGI is 6.17 µM in the assay on T-47D breast; 23.4 µM with BT-549 breast; 6.83 µM in the assay on CAKI-1 renal; 13.2 µM in the assay with SF-539 CNS; 10.2 µM in the assay on UO-31 renal; 11.6 µM in the assay with ACHN renal. In the assay with M14 melanoma, this compound showed a TGI of 3.41 µM.
As to `Cc1ccc(NC2=C(Cl)C(=O)N(Cc3ccccc3)C2=O)cc1O`, the GI50 was 44.9 µM in the assay on T-47D breast; 28.1 µM in the assay on CAKI-1 renal; 17.8 µM in the assay with K-562 leukemia; 25 µM in the assay on SF-539 CNS; 82.2 µM in the assay with UO-31 renal; 34.8 µM with HOP-62 NSCLC. The GI50 in the assay on CCRF-CEM leukemia is 29.6 µM; in the assay with M14 melanoma, 51.4 µM. Moreover, the TGI is > 100 µM with T-47D breast; > 100 µM with CAKI-1 renal; > 100 µM in the assay with K-562 leukemia; 76 µM in the assay on SF-539 CNS; > 100 µM in the assay on UO-31 renal; > 100 µM in the assay on HOP-62 NSCLC. Moreover, the TGI in the assay on CCRF-CEM leukemia and with M14 melanoma was > 100 µM throughout.
